Laboratory results taken from patent US20250041293A1, “AN IGF1R INHIBITOR AND AN AKT INHIBITOR FOR USE IN THE TREATMENT OF CANCER” (Genome Research Limited, priority 2022, published 2025).
Like-named read-outs stand apart in the source and are kept apart here.

What was measured:
insulin receptor (IR) = insulin receptor (IR) (Homo sapiens, UniProt P06213); conditions: assay format not stated; cited from earlier work
IGF1R = IGF1R (Homo sapiens, UniProt P08069); conditions: assay format not stated; cited from earlier work
SRC = SRC (Homo sapiens, UniProt P12931); conditions: cell-free assays; cited from earlier work
ABL T3151 = ABL T3151 (Homo sapiens, UniProt P00519, T315I); conditions: cell-free assays; cited from earlier work
LYN = LYN (Homo sapiens, UniProt P07948); conditions: cell-free assays; cited from earlier work
[1] = weekly 1-hr IV infusions; patients with solid tumours or multiple myeloma; cited from earlier work
[2] = tested on: Akt1/2, Aurora A/B,B-Raf, CDK2, and EGFR; conditions: cited from earlier work
[3] = phase I, patients with multiple myeloma; cited from earlier work
Akt3 = Akt3 (Homo sapiens, UniProt Q9Y243); conditions: assay format not stated; cited from earlier work
Akt2 = Akt2 (Homo sapiens, UniProt P31751); conditions: assay format not stated; cited from earlier work
Akt1 = Akt1 (Homo sapiens, UniProt P31749); conditions: cited from earlier work
IR = IR (Homo sapiens, UniProt P06213); conditions: cited from earlier work
FGF-R, PDGF-R, or EGF-R = conditions: for example FGF-R; cited from earlier work
PKA = conditions: cited from earlier work
colon cancer cell lines = assay: Anchored 2x7 combination viability screen (CellTiter-Glo, 72 h), colon cancer cell lines; format: cell-based; conditions: in combination with MK-2206, colon; compared with Linsitinib+MK-2206
Description: To screen efficiently we used a 2×7 concentration matrix, or “anchored” approach. We screened each anchor compound at two optimised concentrations and a discontinuous 1,000-fold (7-point) dose-response curve of the library compound. Viability was read out after 72 h of drug treatment using CellTiter-Glo and drug responses for single agent and combination responses were fitted. […] The combination was screened in both anchor and library orientations, the first named compound being the anchor compound.

PKC = conditions: cited from earlier work
Mek = conditions: cited from earlier work
MAPK1/2 = conditions: cited from earlier work

Chain of Akt1 (P31749 whole entry): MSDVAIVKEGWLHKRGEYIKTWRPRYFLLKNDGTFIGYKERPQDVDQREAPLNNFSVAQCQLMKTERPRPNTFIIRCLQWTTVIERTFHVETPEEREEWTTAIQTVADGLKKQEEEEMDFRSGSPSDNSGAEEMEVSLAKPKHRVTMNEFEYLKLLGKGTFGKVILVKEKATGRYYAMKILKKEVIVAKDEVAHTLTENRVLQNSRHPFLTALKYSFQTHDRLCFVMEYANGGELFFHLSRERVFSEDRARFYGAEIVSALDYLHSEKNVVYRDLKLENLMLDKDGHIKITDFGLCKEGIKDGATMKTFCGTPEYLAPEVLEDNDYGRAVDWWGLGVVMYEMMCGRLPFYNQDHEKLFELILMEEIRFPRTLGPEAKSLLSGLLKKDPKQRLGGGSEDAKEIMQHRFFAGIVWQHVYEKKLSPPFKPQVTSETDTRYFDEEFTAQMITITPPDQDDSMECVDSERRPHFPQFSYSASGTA
Chain of insulin receptor (IR) (P06213 28-1382): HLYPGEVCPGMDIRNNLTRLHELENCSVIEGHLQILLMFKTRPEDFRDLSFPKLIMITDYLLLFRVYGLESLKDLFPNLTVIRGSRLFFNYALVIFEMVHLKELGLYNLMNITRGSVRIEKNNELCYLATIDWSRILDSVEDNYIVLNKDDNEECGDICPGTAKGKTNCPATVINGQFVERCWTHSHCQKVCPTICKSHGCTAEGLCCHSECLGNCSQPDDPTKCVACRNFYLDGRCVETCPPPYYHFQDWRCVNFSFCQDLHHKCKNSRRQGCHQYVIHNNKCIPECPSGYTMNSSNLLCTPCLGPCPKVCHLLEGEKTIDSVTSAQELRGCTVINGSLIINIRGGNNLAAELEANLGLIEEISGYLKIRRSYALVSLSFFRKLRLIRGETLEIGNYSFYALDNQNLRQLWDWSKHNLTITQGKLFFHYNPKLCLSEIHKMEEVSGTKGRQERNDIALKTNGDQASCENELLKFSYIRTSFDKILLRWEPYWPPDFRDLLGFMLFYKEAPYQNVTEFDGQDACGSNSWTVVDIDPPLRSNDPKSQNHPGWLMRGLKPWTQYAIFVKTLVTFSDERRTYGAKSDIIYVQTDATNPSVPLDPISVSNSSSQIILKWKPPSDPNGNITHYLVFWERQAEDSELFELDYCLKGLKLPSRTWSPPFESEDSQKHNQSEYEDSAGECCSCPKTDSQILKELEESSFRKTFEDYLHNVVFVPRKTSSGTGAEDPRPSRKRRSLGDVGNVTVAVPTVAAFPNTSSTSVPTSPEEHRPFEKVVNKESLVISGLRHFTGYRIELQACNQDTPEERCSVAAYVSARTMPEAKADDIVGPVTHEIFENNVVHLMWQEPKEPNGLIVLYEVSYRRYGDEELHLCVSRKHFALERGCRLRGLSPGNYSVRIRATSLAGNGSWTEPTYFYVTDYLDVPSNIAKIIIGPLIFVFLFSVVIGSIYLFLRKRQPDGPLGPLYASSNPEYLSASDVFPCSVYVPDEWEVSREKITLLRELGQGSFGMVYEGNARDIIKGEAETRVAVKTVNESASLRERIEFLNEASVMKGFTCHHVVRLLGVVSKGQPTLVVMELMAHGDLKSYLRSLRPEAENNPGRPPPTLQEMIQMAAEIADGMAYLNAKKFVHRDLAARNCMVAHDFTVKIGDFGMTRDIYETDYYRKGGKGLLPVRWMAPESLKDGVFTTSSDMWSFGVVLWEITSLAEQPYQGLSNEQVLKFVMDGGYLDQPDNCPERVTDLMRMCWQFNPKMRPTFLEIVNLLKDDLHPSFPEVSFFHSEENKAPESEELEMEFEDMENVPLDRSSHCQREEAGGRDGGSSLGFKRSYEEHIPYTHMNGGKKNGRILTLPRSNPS
Chain of IR (P06213 28-1382): as above
Chain of Akt2 (P31751 whole entry): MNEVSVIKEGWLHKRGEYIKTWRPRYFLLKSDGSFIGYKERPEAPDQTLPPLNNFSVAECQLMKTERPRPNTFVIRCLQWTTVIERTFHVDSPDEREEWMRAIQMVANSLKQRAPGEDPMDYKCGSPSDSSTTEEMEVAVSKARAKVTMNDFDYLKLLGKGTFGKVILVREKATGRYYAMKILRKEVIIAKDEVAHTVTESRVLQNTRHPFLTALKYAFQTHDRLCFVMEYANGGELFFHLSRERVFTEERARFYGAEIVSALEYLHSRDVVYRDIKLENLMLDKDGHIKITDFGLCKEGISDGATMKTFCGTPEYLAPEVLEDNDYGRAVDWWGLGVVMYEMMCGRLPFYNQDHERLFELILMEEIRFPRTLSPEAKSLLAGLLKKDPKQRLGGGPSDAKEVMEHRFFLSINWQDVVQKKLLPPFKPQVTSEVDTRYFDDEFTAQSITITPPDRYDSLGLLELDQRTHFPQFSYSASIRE
Chain of IGF1R (P08069 31-1367): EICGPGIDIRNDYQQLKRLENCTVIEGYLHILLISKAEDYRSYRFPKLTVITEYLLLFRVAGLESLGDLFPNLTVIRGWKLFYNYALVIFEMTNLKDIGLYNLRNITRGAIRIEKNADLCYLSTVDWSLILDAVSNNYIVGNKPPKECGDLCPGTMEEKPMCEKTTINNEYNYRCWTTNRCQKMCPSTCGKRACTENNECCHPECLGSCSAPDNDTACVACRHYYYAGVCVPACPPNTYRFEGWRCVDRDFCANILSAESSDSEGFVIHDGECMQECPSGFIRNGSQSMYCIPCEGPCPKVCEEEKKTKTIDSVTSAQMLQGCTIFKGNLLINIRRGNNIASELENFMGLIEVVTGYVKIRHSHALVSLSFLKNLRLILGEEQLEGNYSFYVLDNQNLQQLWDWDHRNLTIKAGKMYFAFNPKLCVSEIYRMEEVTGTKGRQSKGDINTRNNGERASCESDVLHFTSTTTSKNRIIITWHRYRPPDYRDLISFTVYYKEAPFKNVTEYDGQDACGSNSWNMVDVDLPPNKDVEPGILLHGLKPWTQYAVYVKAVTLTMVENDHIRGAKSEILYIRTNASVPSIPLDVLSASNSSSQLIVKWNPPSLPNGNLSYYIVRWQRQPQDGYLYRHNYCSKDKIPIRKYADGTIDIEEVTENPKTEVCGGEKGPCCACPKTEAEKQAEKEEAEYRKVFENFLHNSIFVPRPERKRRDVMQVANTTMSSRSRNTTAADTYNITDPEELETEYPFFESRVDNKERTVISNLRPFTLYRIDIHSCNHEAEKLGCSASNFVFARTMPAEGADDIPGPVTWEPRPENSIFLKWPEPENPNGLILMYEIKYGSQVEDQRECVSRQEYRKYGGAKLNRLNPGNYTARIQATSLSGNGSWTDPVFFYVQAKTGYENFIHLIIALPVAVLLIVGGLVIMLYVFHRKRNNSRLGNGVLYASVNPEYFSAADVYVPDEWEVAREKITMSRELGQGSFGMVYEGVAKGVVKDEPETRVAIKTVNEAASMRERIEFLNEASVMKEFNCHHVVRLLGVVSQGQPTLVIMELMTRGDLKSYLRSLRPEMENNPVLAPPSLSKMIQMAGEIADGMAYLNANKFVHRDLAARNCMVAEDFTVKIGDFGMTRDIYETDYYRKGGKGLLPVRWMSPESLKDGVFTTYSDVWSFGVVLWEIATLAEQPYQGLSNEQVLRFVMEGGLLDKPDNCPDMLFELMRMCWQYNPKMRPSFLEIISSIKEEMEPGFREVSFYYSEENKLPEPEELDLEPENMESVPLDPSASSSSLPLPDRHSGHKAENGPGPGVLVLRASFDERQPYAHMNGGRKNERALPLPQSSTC
Chain of LYN (P07948 whole entry, the tested form may be a part): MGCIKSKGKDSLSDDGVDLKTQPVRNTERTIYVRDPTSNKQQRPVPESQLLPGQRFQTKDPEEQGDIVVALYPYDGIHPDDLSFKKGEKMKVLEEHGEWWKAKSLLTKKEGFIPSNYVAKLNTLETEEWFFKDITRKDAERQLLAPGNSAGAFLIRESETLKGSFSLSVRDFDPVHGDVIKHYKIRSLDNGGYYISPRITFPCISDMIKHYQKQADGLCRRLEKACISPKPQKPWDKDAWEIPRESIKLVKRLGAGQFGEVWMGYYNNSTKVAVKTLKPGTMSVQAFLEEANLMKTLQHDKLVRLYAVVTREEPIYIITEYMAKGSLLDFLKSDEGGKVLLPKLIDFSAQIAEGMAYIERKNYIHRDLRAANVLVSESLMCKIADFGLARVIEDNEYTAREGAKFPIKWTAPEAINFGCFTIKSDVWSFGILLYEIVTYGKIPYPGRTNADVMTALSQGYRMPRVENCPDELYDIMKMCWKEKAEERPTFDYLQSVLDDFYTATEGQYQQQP
Chain of SRC (P12931 whole entry): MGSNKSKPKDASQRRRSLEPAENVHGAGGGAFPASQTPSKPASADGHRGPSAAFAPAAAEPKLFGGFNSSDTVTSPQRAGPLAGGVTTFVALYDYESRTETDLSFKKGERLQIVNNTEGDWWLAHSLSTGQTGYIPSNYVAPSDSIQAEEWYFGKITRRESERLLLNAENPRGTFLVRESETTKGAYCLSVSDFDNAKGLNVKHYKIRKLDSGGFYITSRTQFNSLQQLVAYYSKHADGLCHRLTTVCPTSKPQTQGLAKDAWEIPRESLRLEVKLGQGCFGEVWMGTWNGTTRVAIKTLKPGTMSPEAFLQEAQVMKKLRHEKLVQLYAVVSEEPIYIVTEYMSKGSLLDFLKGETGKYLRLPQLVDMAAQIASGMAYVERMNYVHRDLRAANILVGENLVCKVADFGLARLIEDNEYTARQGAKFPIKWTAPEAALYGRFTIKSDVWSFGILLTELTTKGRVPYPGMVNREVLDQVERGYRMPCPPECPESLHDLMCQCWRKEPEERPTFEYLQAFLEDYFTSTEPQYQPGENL

Cc1ccsc1C(=O)Nc1cc(CN2CCN(C(=O)CO)CC2)ccc1/C=C/c1n[nH]c2ccccc12 [KW-2450]
IC50 (insulin receptor (IR)): 5.64 nM | IC50 (IGF1R): 7.39 nM

CC(C)c1cc(CNc2nc(Nc3cc(C4CC4)[nH]n3)cc(N3CCN(C)CC3)n2)on1 [XL228, N4-(5-cyclopropyl-1H-pyrazol-3-yl)-N2-[(3-isopropylisoxazol-5-yl)methyl]-6-(4-methylpiperazin-1-yl)pyrimidine-2,4-diamine]
IC50 (SRC): 6.1 nM | IC50 (ABL T3151): 1.4 nM | IC50 (LYN): 2 nM | maximum tolerated dose (MTD) [1]: 6.5 mg/kg

CCc1cc(Nc2nccc(-c3c(-c4ccc(OC)c(C(=O)Nc5c(F)cccc5F)c4)nc4ccccn34)n2)c(OC)cc1N1CCC(N2CCN(S(C)(=O)=O)CC2)CC1 [GSK1904529A, N-(2,6-difluorophenyl)-5-[3-[2-[5-ethyl-2-methoxy-4-[4-(4-methylsulfonylpiperazin-1-yl)-1-piperidyl]anilino]pyrimidin-4-yl]imidazo[1,2-a]pyridine-2-yl]-2-methoxy-benzamide]
selectivity for IGF1R/IR than Akt1/2, Aurora A/B, B-Raf, CDK2, and EGFR [2]: > 100 fold

Cn1ncc(Cl)c1-c1cc(C(=O)N[C@H](CN)Cc2cccc(F)c2)sc1Cl [Afuresertib, N-[(1S)-1-(aminomethyl)-2-(3-fluorophenyl)ethyl]-5-chloro-4-(4-chloro-2-methyl-pyrazol-3-yl)thiophene-2-carboxamide]
maximum tolerated dose (MTD) [3]: 125 mg per day

C[C@]1(O)C[C@@](N)(c2ccc(-c3nc4n(c3-c3ccccc3)COc3ccncc3-4)cc2)C1 [TAS-117, 3-amino-1-methyl-3-[4-(5-phenyl-8-oxa-3,6,12-triazatricyclo[7.4.0.0^2,6]trideca-1(9),2,4,10,12-pentaen-4-yl)phenyl]cyclobutan-1-ol]
IC50 (Akt3): 44 nM | IC50 (Akt2): 1.6 nM | IC50 (Akt1; assay format not stated): 4.8 nM

COc1cc([C@@H]2c3cc4c(cc3[C@H](O)[C@H]3COC(=O)[C@@H]23)OCO4)cc(OC)c1OC [AXL-1717, (5R,5aR,8aS,9R)-5-hydroxy-9-(3,4,5-trimethoxyphenyl)-5a,6,8a,9-tetrahydro-5H-[2]benzofuro[5,6-f][1,3]benzodioxol-8-one]
inhibition of tyrosine phosphorylation of the IR (in words) (IR): does not co-inhibit | inhibition of tyrosine phosphorylation of a selected panel of receptors less related to IGF-IR (in words) (FGF-R, PDGF-R, or EGF-R): does not co-inhibit

C[C@@]1(C(=O)Nc2ccc(F)nc2)CCCN1c1nc(Nc2cc(C3CC3)[nH]n2)c2cccn2n1 [BMS-754807, 1-[4-[(5-cyclopropyl-1H-pyrazol-3-yl)amino]pyrrolo[2,1-f][1,2,4]triazin-2-yl]-N-(6-fluoro-3-pyridyl)-2-methyl-pyrrolidine-2-carboxamide]
activity to PKA (in words) (PKA): little activity | synergy and activity of the IGF1Ri combined with MK-2206 (in words) (colon cancer cell lines): much lower | activity to PKC (in words) (PKC): little activity

Cc1cc(N2CCOCC2)cc2[nH]c(-c3c(NC[C@@H](O)c4cccc(Cl)c4)cc[nH]c3=O)nc12 [BMS-536924]
activity for Akt1 (in words) (Akt1): very little activity | IC50 (Mek): 182 nM | activity for MAPK1/2 (in words) (MAPK1/2): very little activity
